Laboratory results: article PMC10992699, “Comparative structure activity and target exploration of 1,2-diphenylethynes in Haemonchus contortus and Caenorhabditis elegans” (International Journal for Parasitology: Drugs and Drug …, 2024)

Experiments:
H. contortus xL3s = experiment: H. contortus xL3 motility dose-response assay; type: cell-based, Haemonchus contortus
Experimental: Immediately prior to use in assays, H. contortus L3s were exsheathed via exposure to 0.15 % (v/v) sodium hypochlorite for 20 min at 38 °C ([Preston et al., 2015]), achieving an exsheathment rate of 90 %. The larvae were then immediately washed five times with 50 mL of sterile physiological saline (pH 7.0) by centrifugation at 2000×g (5 min) and resuspended (at a concentration of 300 xL3s per 50 μL) in sterile (autoclaved) lysogeny broth (LB; cf. [Bertani, 1951]; [Taki et al., 2021b]), supplemented with final concentrations of 100 IU/mL of penicillin, 100 μg/mL of streptomycin and 0.25 μg/mL of amphotericin B (Fungizone®, cat. No. 15240-062, Gibco, Thermo Fisher Scientific, Waltham, MA, USA); this supplemented LB was designated LB*.
The dose-response assay for H. contortus followed a well-established protocol ([Taki et al., 2021b]); it was employed to evaluate the potency of hit compounds against this nematode. Test compounds were assessed individually for an effect on the motility of xL3s (10-point, 2-fold serial dilution in LB*, 40 μM–[…]). […] A solution of LB* was used as a negative control. The test compounds and positive control compounds (monepantel and moxidectin) were arrayed in triplicate across individual flat-bottom 96-well microplates, with six wells on each plate containing the negative control. Added to each well were 300 xL3s of H. contortus in 50 μL of LB* to give a final volume of 100 μL. Plates were then placed in a CO2 incubator (10 % (v/v) CO2, 38 °C, >90 % humidity; Forma, model no. 311, Thermo Fisher Scientific, USA). […] Over a period of 15 min, disturbance of an infrared beam in individual wells was recorded as an ‘activity count’. Raw ‘activity counts’ for individual wells were normalised to the negative-controls. The compound concentrations were log10-transformed and fitted using a variable slope four-parameter equation, using the ordinary least squares fit model, employing Prism (v.9.1.0 GraphPad Software, San Diego, CA, USA). Larval development was established at 168 h of incubation with compound, as described previously ([Preston et al., 2015]). The phenotypes of larvae were examined using a microscope ([Preston et al., 2015]) and recorded.

C. elegans young adults = experiment: C. elegans young adult motility dose-response assay; type: cell-based, Caenorhabditis elegans; settings: Caenorhabditis elegans, 40 h, young adults; 40 h incubation; three independent assays in triplicate; read-out: Worm motility IC50 ± SD, C. elegans young adults
Experimental: The eggs were then washed five times with 15 mL of sterile M9 buffer (centrifugation at 500×g, 2 min). […] were collected from plates and washed twice with sterile M9 buffer by centrifugation (500×g, 2 min) to remove E. coli OP50, and then resuspended to a concentration of 100 larvae per 50 μL in sterile (autoclaved) LB*. The dose-response assay for C. elegans followed a well-established protocol ([Taki et al., 2021a]) and was employed to evaluate the potency of hit compounds against this nematode. […] Two compounds, monepantel (ZolvixTM; Elanco, Australia) and moxidectin ([…], France) were used as positive controls and prepared in the same manner as the test compounds. […] The test compounds and positive control compounds were arrayed in triplicate across individual flat-bottom 96-well microplates (cat. no. 3596; Corning, Corning, NY, USA), with six wells on each plate containing the negative control. Added to each well were 100 C. elegans in 50 μL of LB* to give a final volume of 100 μL. Plates were then placed in an incubator ([…], model no. IMP180, Thermo Fisher Scientific, USA) at 20 °C for 40 h. […] Over 15 min, disturbance of an infrared beam in individual wells was recorded as an 'activity count'. Raw 'activity counts' for each well were normalised to the negative controls. The compound concentrations were log10-transformed and fitted using a variable slope four-parameter equation, using the ordinary least squares fit model, employing the program Prism (v.9.1.0 GraphPad Software, San Diego, CA, USA).

Q: Which results are given for `C(#Cc1ccc(-c2ccn[nH]2)cc1)c1ccccc1` [UMW-9729]?
A: IC50 (H. contortus xL3s; Haemonchus contortus, 90 h, xL3s, 90 h incubation (table title), three independent assays in triplicate, read-out: Worm motility IC50 ± SD, H. contortus xL3s): 6.7 ± 0.4 µM; fold more active than moxidectin, H. contortus larvae (H. contortus xL3s; ratio of xL3 motility IC50 to moxidectin): ~3 fold; IC50 (C. elegans young adults): 14 ± 2.9 µM
